Source: US10294212B2 (CURADEV PHARMA PRIVATE LTD., priority 2013, dated 2019)
Like-named read-outs stand apart in the source and are kept apart here.

Columns and labels:
[1] = target: Human TDO (hTDO)-transfected CHO-K1 cells (Homo sapiens (Human), UniProt P48775); test: CHO-K1 cell based TDO assay; details: hTDO cellular assay
Method in brief: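 Kynurenine output was read by LC/MS/MS after TCA precipitation and 15 min at 65° C. Before that, CHO-K1 cells stably carrying human TDO2 were incubated 2 h with compounds (typically 31 μM to 10 nM) and 80 μM L-tryptophan in HBSS. Decrease versus DMSO vehicle gave percent inhibition, then IC50.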

[2] = target: Human indoleamine 2,3-dioxygenase-2 (hIDO2) (Homo sapiens (Human), UniProt Q6ZQW0); test: In-vitro IDO2 enzyme assay; assay type: biochemical
Chain of Human indoleamine 2,3-dioxygenase-2 (hIDO2) (Q6ZQW0 whole entry): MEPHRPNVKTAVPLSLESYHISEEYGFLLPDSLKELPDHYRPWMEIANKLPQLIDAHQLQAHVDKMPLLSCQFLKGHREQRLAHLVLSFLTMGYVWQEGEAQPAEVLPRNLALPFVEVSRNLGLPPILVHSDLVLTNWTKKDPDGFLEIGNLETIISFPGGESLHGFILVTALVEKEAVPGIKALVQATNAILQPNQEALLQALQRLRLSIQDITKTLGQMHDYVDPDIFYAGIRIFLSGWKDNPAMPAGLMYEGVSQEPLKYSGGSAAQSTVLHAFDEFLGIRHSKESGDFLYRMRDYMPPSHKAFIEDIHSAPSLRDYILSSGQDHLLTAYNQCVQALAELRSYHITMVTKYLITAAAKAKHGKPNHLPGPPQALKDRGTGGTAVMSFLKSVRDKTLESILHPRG
Source text: Human indoleamine 2,3-dioxygenase-2 (hIDO2) catalyzes the oxidative cleavage of the pyrrole ring of the indole nucleus of tryptophan to yield N-formylkynurenine which can be converted to kynurenine (KYN) by deformylation. hIDO2 with an C-terminal His tag (Sino Biological Inc (China)) was expressed in E. coli cells and the protein was purified using standard methods well known in the art. Unless otherwise stated, all materials were procured from Sigma Aldrich, Mo., USA.
The assay monitoring the conversion of L-tryptophan to KYN was carried out as follows. hIDO2 (160 nM) was incubated with tryptophan (5000 04) in the presence of ascorbic acid (20 mM), methylene blue (10 04) and catalase (100 μg/mL) in potassium phosphate buffer (100 mM; pH 7.5) at 37 degrees C. for 30 min. The reaction was terminated with 30% trichloroacetic acid (TCA) and further incubated at 65 degrees C. for 15 min to fully convert N-formylkynurenine to KYN. The reaction mixture was then centrifuged to remove sediments, and the KYN in the supernatant was measured by UV-visible absorption spectroscopy at 360 nm using a Waters HPLC system fitted with a C-18 column or by LC/MS/MS (C. J. D Austin et. Al, Amino Acid 2009, 565-578).
Percent inhibition at each concentration of test compounds was determined by determining the decrease in KYN with reference to the reaction control with 1% DMSO vehicle. Data were analyzed using nonlinear regression to generate IC50 values using Graph Pad Prism® 5. Compounds 2 and 184 were tested as described above.

[3] = tested on: plasma and tumor tissue KYN; test: Tumor penetration: KYN levels in tumor and plasma, CT26/Balb/C tumor model; assay type: in vivo, Balb/c mice; details: 50 mg/kg oral BID 4 days, vs vehicle; for plasma KYN levels reduced: 2 hours post-dosing
Description: i. Tumor penetration in mice: Tumor penetration of test compounds and KYN levels in tumor and plasma of treated animals were determined in a syngeneic CT26/Balb/C tumor model. Briefly, three to four tumor bearing Balb/c mice (tumor size=150-200 mm^3) were dosed twice a day orally for 4 days with test compound (for e.g., compound 2) at 50 mg/kg formulated in carboxymethyl cellulose (CMC). A vehicle control was included along with the test compounds. Blood samples were collected by retro-orbital bleed or terminal cardiac bleed into tubes containing heparin just before the final dose and at two hours after the final dose. Animals were sacrificed two hours post-final dose. Tumors were harvested and weighed immediately. Tumors were then snap frozen in liquid nitrogen, pulverized and dissolved in homogenization buffer (chilled acetonitrile/water/formic acid (10:90:0.1 v/v/v) to extract test compounds and kynurenine, KYN.
Plasma and tumor tissue KYN levels were reduced in test compound treated animals compared to control vehicle-treated animals (TABLE 7). For example, compounds 2 and 97 each reduced tumor KYN levels by 81%. At 2 hours post-dosing, the plasma KYN levels were reduced by 62% and 67% respectively in the animals treated with compound 2 or 97 compared to the control animals dosed with vehicle alone. The concentration of test compounds in the tumor tissue extracts is determined by LC/MS/MS using an API 4000 or AP15500 Qtrap mass spectrometer.

[4] = Brain penetration in rats; assay type: in vivo, Sprague-Dawley rats; details: rat, single i.v. 10 mg/kg
Description: ii. Brain penetration in rats: Early and accurate prediction of drug penetration of the blood brain barrier is vital for the development of drugs targeting the central nervous system. Accordingly, ability of the compounds of the invention to penetrate the blood brain barrier was tested according to the methods well established in the art (Giorgetti et al., (2010) JPET 333:748-757, 2010). Briefly, Sprague-Dawley rats (n=3 per time point studied) were administered a single intravenous dose of the test compounds 2 or 97 formulated in 40% PEG and 20% PG at 10 mg/kg. Three rats were used for each of the following time points post-dosing: 0.5 hr, 1.5 hr and 3.0 hrs. First, blood was collected during deep anesthesia in heparinized tubes, and then animals were sacrificed and their brains were harvested. The brains were then pulverized in liquid nitrogen and homogenized in fixed volumes of ice cold homogenization buffer (10% Acetonitrile, 0.1% formic acid in water). Plasma was separated from blood using standard procedures. Plasma and brain concentrations of test compounds 2 and 97 were determined by LC/MS/MS using an API 4000 or AP15500 Qtrap mass spectrometer. Brain/Plasma ratio of test compounds 2 and 97 were determined after normalizing brain weight and buffer volume.

[5] = IDO2 Enzyme assay, read-out: IC50 values IDO2
[6] = IDO2 enzyme assay, read-out: IDO2 IC50

Chain of Human TDO (hTDO)-transfected CHO-K1 cells (P48775 whole entry): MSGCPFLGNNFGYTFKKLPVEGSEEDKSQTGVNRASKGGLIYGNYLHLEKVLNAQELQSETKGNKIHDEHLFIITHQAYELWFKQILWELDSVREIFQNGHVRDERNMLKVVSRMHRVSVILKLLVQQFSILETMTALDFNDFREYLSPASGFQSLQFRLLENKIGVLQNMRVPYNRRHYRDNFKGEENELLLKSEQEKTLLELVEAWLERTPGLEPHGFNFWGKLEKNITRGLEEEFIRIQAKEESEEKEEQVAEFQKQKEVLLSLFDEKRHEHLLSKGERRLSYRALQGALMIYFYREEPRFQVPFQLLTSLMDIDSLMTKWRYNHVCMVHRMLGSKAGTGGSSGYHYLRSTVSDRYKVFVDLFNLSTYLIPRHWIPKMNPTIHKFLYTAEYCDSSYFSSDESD

IC50 [1] [nM]	IC50 [2, 5] [nM]	IC50 [2, 6] [nM]	SMILES	tumor KYN levels reduced [3] [%]	plasma KYN levels reduced [3] [%]	blood brain barrier penetration [4]
< 500	< 1000	< 1000	Nc1oc2c(-c3ccncc3)nccc2c1Nc1ccc(F)c(F)c1 [Compound 184, N^3-(3,4-difluorophenyl)-7-(pyridin-4-yl)furo[2,3-c]pyridine-2,3-diamine]	–	–	–
< 500	–	–	Nc1oc2c(-c3ccncc3)nccc2c1Nc1ccc(F)c(Cl)c1 [Compound 97, N^3-(3-Chloro-4-fluorophenyl)-7-(pyridin-4-yl)furo[2,3-c]pyridine-2,3-diamine]	81	67	capable of penetrating blood brain barrier
500 to 2000	< 1000	< 1000	Nc1oc2cnccc2c1Nc1ccc(F)c(Cl)c1 [Compound 2, N^3-(3-Chloro-4-fluoro-phenyl)-furo[2,3-c]pyridine-2,3-diamine]	81	62	capable of penetrating blood brain barrier
